Reference: US10253052B2, “HBED-bisphosphonates, radiometal conjugates and their use as theranostic agents” (Five Eleven Pharma Inc., priority 2015, dated 2019)

Legend:
[1] = In vivo biodistribution in mice; design: species or system normal CD-1 male mice; conditions: iv
Procedure: Biodistribution experiments were performed by intravenously administering ^68Ga labeled 1a-h, 2, 3, BPAMD, and [^18F]NaF into normal, healthy male CD-1 mice (25-30 g). The injection activity was 20-30 μCi/animal. […] Organs of interest were harvested, weighed, and counts of radioactivity were measured by a gamma counter. The biodistribution of each sample was calculated as a percentage of the injected dose per gram of wet tissue weight (% ID/g). Tibia and femur bones were harvested and counted as bone samples.

[2] = In vitro binding to hydroxyapatite; conditions: 20 mg hydroxyapatite in saline, 10 min at room temperature
Procedure: Hydroxyapatite (20 mg, Sigma-Aldrich, reagent grade powder) was incubated in isotonic saline (1 mL) for 24 h. Subsequently, either ^68Ga labeled 1a-h, 2, 3, BPAMD, or [^18F]NaF (1 μCi) was added to the hydroxyapatite suspension. After vortexing for 10 seconds, the suspension was incubated for 10 min at room temperature. The samples were then centrifuged at 10,000 rpm for 3 min and the supernatant was removed. The hydroxyapatite fraction was washed twice with saline (1 mL). Radioactivity in the combined supernatants and the hydroxyapatite fraction was measured using a gamma counter. The proportion of the ^68Ga complex binding to hydroxyapatite was determined as percent of ^68Ga absorbed to hydroxyapatite.

In the case of `C[C@H](NC(=O)CCc1ccc([O-])c(CN(CCN(CC(=O)[O-])Cc2cc(CCC(=O)NC(P(=O)(O)O)P(=O)(O)O)ccc2[O-])CC(=O)[O-])c1)C(=O)O.[68Ga+3]` [[^68Ga]1d], the “bone to blood ratio” value ([1]; 2 min) is reported as 1.1, the “bone to muscle ratio” value ([1]; 2 min) is reported as 5.9 and the “Biodistribution: Blood” value ([1]; 2 min post injection) is reported as 9.08 ± 0.58 % dose/g. For the same molecule, the “Biodistribution: Bone” value ([1]; 2 min post injection) was 10.1 ± 2.05 % dose/g, the “Biodistribution: Brain” value ([1]; 2 min post injection) was 0.29 ± 0.05 % dose/g and the “Biodistribution: Heart” value ([1]; 2 min post injection) was 2.99 ± 0.26 % dose/g. For the same molecule, the “Biodistribution: Kidney” value ([1]; 2 min post injection) was 25.3 ± 3.89 % dose/g, the “Biodistribution: Liver” value ([1]; 2 min post injection) was 1.89 ± 0.16 % dose/g and the “Biodistribution: Lung” value ([1]; 2 min post injection) was 4.83 ± 0.25 % dose/g. The “Biodistribution: Muscle” value ([1]; 2 min post injection) was 1.72 ± 0.15 % dose/g, the “Biodistribution: Pancreas” value ([1]; 2 min post injection) was 1.53 ± 0.14 % dose/g and the “Biodistribution: Skin” value ([1]; 2 min post injection) was 2.39 ± 0.13 % dose/g. The “Biodistribution: Spleen” value ([1]; 2 min post injection) was 1.72 ± 0.24 % dose/g, the “bone to blood ratio” value ([1]; 30 min) was 29 and the “bone to muscle ratio” value ([1]; 30 min) was 64. For the same molecule, the “Biodistribution: Blood” value ([1]; 30 min (0.5 hr) post injection) was 0.53 ± 0.13 % dose/g, the “Biodistribution: Bone” value ([1]; 30 min (0.5 hr) post injection) was 15.3 ± 1.26 % dose/g and the “Biodistribution: Brain” value ([1]; 30 min (0.5 hr) post injection) was 0.03 ± 0.00 % dose/g. The “Biodistribution: Heart” value ([1]; 30 min (0.5 hr) post injection) was 0.26 ± 0.06 % dose/g, the “Biodistribution: Kidney” value ([1]; 30 min (0.5 hr) post injection) was 2.14 ± 0.60 % dose/g and the “Biodistribution: Liver” value ([1]; 30 min (0.5 hr) post injection) was 0.26 ± 0.09 % dose/g. For the same molecule, the “Biodistribution: Lung” value ([1]; 30 min (0.5 hr) post injection) was 0.45 ± 0.10 % dose/g, the “Biodistribution: Muscle” value ([1]; 30 min (0.5 hr) post injection) was 0.24 ± 0.06 % dose/g and the “Biodistribution: Pancreas” value ([1]; 30 min (0.5 hr) post injection) was 0.21 ± 0.12 % dose/g. For the same molecule, the “Biodistribution: Skin” value ([1]; 30 min (0.5 hr) post injection) was 0.42 ± 0.10 % dose/g, the “Biodistribution: Spleen” value ([1]; 30 min (0.5 hr) post injection) was 0.21 ± 0.07 % dose/g and the “bone to blood ratio” value ([1]; 60 min) was 144. For the same molecule, the “bone to muscle ratio” value ([1]; 60 min) was 235, the “Biodistribution: Blood” value ([1]; 60 min (1 hr) post injection) was 0.10 ± 0.01 % dose/g and the “Biodistribution: Bone” value ([1]; 60 min (1 hr) post injection) was 14.7 ± 0.50 % dose/g. The “Biodistribution: Brain” value ([1]; 60 min (1 hr) post injection) was 0.01 ± 0.00 % dose/g, the “Biodistribution: Heart” value ([1]; 60 min (1 hr) post injection) was 0.08 ± 0.01 % dose/g and the “Biodistribution: Kidney” value ([1]; 60 min (1 hr) post injection) was 1.05 ± 0.17 % dose/g. The “Biodistribution: Liver” value ([1]; 60 min (1 hr) post injection) was 0.12 ± 0.01 % dose/g, the “Biodistribution: Lung” value ([1]; 60 min (1 hr) post injection) was 0.17 ± 0.01 % dose/g and the “Biodistribution: Muscle” value ([1]; 60 min (1 hr) post injection) was 0.06 ± 0.00 % dose/g. For the same molecule, the “Biodistribution: Pancreas” value ([1]; 60 min (1 hr) post injection) was 0.06 ± 0.01 % dose/g, the “Biodistribution: Skin” value ([1]; 60 min (1 hr) post injection) was 0.13 ± 0.01 % dose/g and the “Biodistribution: Spleen” value ([1]; 60 min (1 hr) post injection) was 0.06 ± 0.00 % dose/g. For the same molecule, the “bone to blood ratio” value ([1]; 120 min) was 278, the “bone to muscle ratio” value ([1]; 120 min) was 417 and the “Biodistribution: Blood” value ([1]; 120 min post injection) was 0.06 ± 0.02 % dose/g. For the same molecule, the “Biodistribution: Bone” value ([1]; 120 min post injection) was 17.0 ± 1.10 % dose/g, the “Biodistribution: Brain” value ([1]; 120 min post injection) was 0.00 ± 0.00 % dose/g and the “Biodistribution: Heart” value ([1]; 120 min post injection) was 0.06 ± 0.01 % dose/g. For the same molecule, the “Biodistribution: Kidney” value ([1]; 120 min post injection) was 0.91 ± 0.15 % dose/g, the “Biodistribution: Liver” value ([1]; 120 min post injection) was 0.10 ± 0.01 % dose/g and the “Biodistribution: Lung” value ([1]; 120 min post injection) was 0.09 ± 0.02 % dose/g. For the same molecule, the “Biodistribution: Muscle” value ([1]; 120 min post injection) was 0.04 ± 0.01 % dose/g, the “Biodistribution: Pancreas” value ([1]; 120 min post injection) was 0.04 ± 0.01 % dose/g and the “Biodistribution: Skin” value ([1]; 120 min post injection) was 0.09 ± 0.01 % dose/g. For the same molecule, the “Biodistribution: Spleen” value ([1]; 120 min post injection) was 0.05 ± 0.01 % dose/g and the “Hydroxyapatite Binding (%)” value [2] was 95.1 ± 0.5%.
